“Also recorded” adds a separate entry of the source. Where a name gives a salt, the structure may show the parent alone. Read-outs that look alike come from different tables or passages of the source.
What was measured:
[1] = tested on: osteogenically differentiating human embryonic stem cells and fibroblasts; test: hESTo biostatistical prediction model (embryotoxicity class); settings: for Embryotoxicity classification by the biostatistical model, in words: hESTo, skeletal differentiation
Excerpt: (§1) Half-maximal inhibitory doses of cytotoxicity (IC50) and osteogenic differentiation (ID50) were taken from concentration–response curves generated in GraphPad Prism (9.2., GraphPad Software Inc., San Diego, CA, USA) with the “nonlinear regression” function). A biostatistical prediction model based on linear discriminant functions was employed to classify the test chemical into one out of three embryotoxicity categories (strong, weak, and non-embryotoxic). In double combination analyses, a t-test was performed comparing combination to single constituent ID50. For triple combination analyses, a one-way ANOVA with Dunnett’s multiple comparison test (single constituent vs. combination) using GraphPad Prism was conducted. A p-value below 0.05 was considered significant. Heatmaps for double and triple exposures were generated in GraphPad Prism 9.2. Calcium-to-MTT ratios were calculated in Microsoft Excel and imported to ClustVis to generate a principal-component-analysis-based clustered heatmap.
Half-maximal inhibitory concentrations for cell viability (IC50 hESC) and differentiation (ID50 Ca^2+ hESC) were established for penicillin G and all-trans retinoic acid from concentration–response curves. The hESTo then compares these two endpoints to the half-maximal inhibitory concentration for cell viability resulting from exposure of fibroblast cells to the same test compound (IC50 MTT hFF) (Figure 3).

[2] = tested on: osteogenically differentiating H9 hESCs; test: hESTo calcium assay, osteogenic differentiation of hESCs; type: cell-based, human; settings: for IC50: Homo sapiens, 480 h, read-out: ID50 Ca2+ hESC (half-maximal inhibitory concentration of differentiation)
Protocol: Differentiation was induced from hESC cultures through the addition of a control differentiation medium (CDM) composed of DMEM, 15% FBS (Atlanta Biologicals, Flowery Branch, GA, USA), 1% (v/v) non-essential amino acids, 50 U/mL penicillin, 50 µg/mL streptomycin, and 0.1 mM β-mercaptoethanol. Five days after this initial medium change, CDM was supplemented with 1.2 × 10^−7 M 1,25α(OH)2 vitamin D3 (Calbiochem, Burlington, MA, USA), 0.1 mM β-glycerophosphate, and 20.8 µg/mL ascorbic acid.
(§2) Cells were cultured with concomitant chemical treatment in a double-blind, vehicle-controlled study. […] 241571), and urethane (Sigma Aldrich, cat. no. U2500) were purchased from the indicated companies. Stock solutions were made in DMEM or dimethylsulfoxide, depending on chemical solubility, sonicated when necessary, sterile filtered (0.1 µm), and stored at −20 °C. For liquids, concentrations were calculated from their density. Final dilutions were made in appropriate cell culture medium upon additional sonication of the stock after thawing. Chemical cell treatment started on day 0 of culture/differentiation and continued through day 20 in both H9 hESCs and hFF cells. Medium, including chemical dilutions, were made fresh and changed every other day. All exposures were performed in biological triplicate, each containing technical quintuplicates.
Quantification of calcium in the extracellular matrix of the cultures was performed using a calcium assay normalized to protein content. First, cells were lysed with radio-immunoprecipitation buffer (1% NP40, 0.5% sodium deoxycholate, 0.1% sodium dodecyl sulfate in PBS) on day 20 of cellular differentiation. The remaining matrix was dissolved with 1 N HCl and collected. Both lysates were assayed with Arsenazo III (Genzyme), and absorbance was measured at 655 nm (iMark microplate reader; Bio-Rad Laboratories, Hercules, CA, USA). Absorbances were compared to a CaCl2 standard, and total calcium content was normalized to the total protein content of the sample determined by a Lowry assay, measured against a bovine serum albumin standard curve. The Lowry assay was read at 750 nm (iMark microplate reader; Bio-Rad Laboratories) after a 15 min micro-shake incubation. Calculation of final normalized calcium content was performed according to a previously published formula [33].
as §1

[3] = tested on: human foreskin fibroblasts (hFF-1); test: hESTo MTT assay, fibroblast viability; settings: for IC50: Homo sapiens, HFF-1, read-out: IC50 MTT hFF
Protocol: Human embryonic stem cells of the line H9 (WiCell) were seeded on Matrigel-coated culture plates and cultured in mTeSR1 medium (Stem Cell Technologies, Seattle, WA, USA) at 37 °C with 5% CO2. Approximately every four days, colonies were treated with accutase for 2–4 min at room temperature to dislodge colonies from the plastic and passaged into fresh Matrigel-coated wells. Human foreskin fibroblasts (hFF-1, American Type Culture Collection, Manassas, VA, USA, cat.no. SCRC-1041), were cultured on 0.1% gelatin-coated 6-well plates in Dulbecco’s Modified Eagle Medium (DMEM) with 10% fetal bovine serum, 1% (v/v) non-essential amino acids, 50 U/mL penicillin, and 50 µg/mL streptomycin at 37 °C in a controlled humidified 5% CO2 incubator. Upon 70% confluency, hFFs were passaged at a 1:6 ratio using phosphate-buffered saline (PBS) washes and 2.5% Trypsin/EDTA every two to four days. While in culture, all cells were routinely checked for bacterial, yeast, and microbial contamination using an inverted microscope and tested for mycoplasma using a PCR-based detection kit (abcam, Fremont, CA, USA, ab289834).
as §2
(§3) Viability response to constituent exposure was determined by 3-[4,5-dimethylthiazol-2yl]-2,5-diphenylterazolium bromide (MTT) assay. Cells were incubated with MTT (5 mg/mL) at 37 °C for 2 h. Following incubation, the supernatant was removed and replaced with 0.04 mol/L HCl in isopropanol. The plate was placed on a shaker for 15 min to dissolve aggregates. The optical density of the solution was read at 595 nm (iMark microplate reader; BioRad).
as §1

[4] = hESTo MTT assay, hESC viability; settings: human
Protocol: (§4) Cells were cultured with concomitant chemical treatment in a double-blind, vehicle-controlled study. […] U2500) were purchased from the indicated companies. […] For liquids, concentrations were calculated from their density. Final dilutions were made in appropriate cell culture medium upon additional sonication of the stock after thawing. Chemical cell treatment started on day 0 of culture/differentiation and continued through day 20 in both H9 hESCs and hFF cells. Medium, including chemical dilutions, were made fresh and changed every other day. All exposures were performed in biological triplicate, each containing technical quintuplicates.
as §3, §1

[5] = tested on: H9 hESCs; test: hESTo MTT assay, hESC viability
Protocol: as §4, §3, §1

[6] = human
Protocol: (C) Table listing IC50 and ID50 values, calculated via GraphPad Prism and expressed as µg/mL, embryotoxicity classes calculated according to Genschow et al. [24], and content per cigarette (cig) or gram tobacco as well as actual and calculated plasma concentrations assuming a plasma volume of 3000 mL. […] ID50 = half-maximal inhibitory concentration of differentiation. IC50 = half-maximal concentration of cytotoxicity. hESC, human embryonic stem cell; hFF, human foreskin fibroblast; ND, not determined from the literature [37, 38, 39, 40, 41, 42, 43, 44, 45, 46, 47, 48, 49].

[7] = tested on: cultured rat embryos; design: method as in PMID 8079346; settings: cited from earlier work
[8] = in vivo; cited from earlier work
[9] = tested on: other aquatic species; settings: cited from earlier work
[10] = H9 hESC, exposure day 0 through day 20, calcium normalized to protein

| SMILES | Embryotoxicity classification by the biostatistical model, in words [1] | IC50 [3] | IC50 at 20 days [4] | IC50 [2, 10] | other results |
| --- | --- | --- | --- | --- | --- |
| CC=O [Acetaldehyde] | strongly developmentally osteotoxic | – | – | – | – |
| C=CC=O [Acrolein, acrolein] | strongly developmentally osteotoxic | – | – | – | – |
| C=CC(N)=O [Acrylamide, acrylamide] | non-embryotoxic | – | – | – | Effect on H9 hESC differentiation potential / calcification, in words [2]: caused reductions in cell viability as well as calcification but in very high concentration ranges |
| CC1=C(/C=C/C(C)=C/C=C/C(C)=C/C(=O)O)C(C)(C)CCC1 [All-trans retinoic acid, all-trans retinoic acid, reference compound] | – | 0.061 µg/mL | 0.036 µg/mL | – | – |
| c1ccc2cc3c(ccc4ccccc43)cc2c1 [Benz[a]anthracene, benz[a]anthracene] | non-embryotoxic | – | – | – | ID50 Ca2+ hESC (half-maximal inhibitory concentration of differentiation) [2, 10]: 239.5 µg/mL; Effect on hFF cell viability, in words ([3]; tested concentration range up to 1000 µg/mL): did not produce a change in cell viability; IC50 MTT hESC (half-maximal concentration of cytotoxicity) ([5]; H9 hESC, exposure day 0 through day 20): 337.3 µg/mL |
| c1ccc2c(c1)cc1ccc3cccc4ccc2c1c34 [Benzo[a]pyrene, benzo[a]pyrene] | – | 1020 ± 653 µg/mL | 52.9 ± 428 µg/mL | 2.11 ± 0.65 µg/mL | Calculated plasma concentration [6]: 0.000036 µg/mL |
| c1ccc2c(c1)-c1cccc3c1c-2cc1ccccc13 [Benzo[b]fluoranthene, benzo[b]fluoranthene] | neither chemical classified as developmentally osteotoxic | 110 ± 76.1 µg/mL | 61 ± 14.8 µg/mL | 25.8 ± 7.24 µg/mL | – |
| Oc1ccccc1O [Catechol, catechol] | strongly embryotoxic; also recorded: strongly developmentally osteotoxic | 9.29 ± 1.71 µg/mL | 0.071 ± 0.023 µg/mL | – | IC50 [2]: 0.258 ± 0.166 µg/mL; hESC differentiation endpoint relative to solvent control ([2]; around 0.882 µg/mL): below 25%; Concentration above which hFF cell viability changed [3]: above 0.882 µg/mL; Half-maximal lethality [7]: 50 to 100 µM; hESC cytotoxicity endpoint relative to solvent control ([5]; around 0.882 µg/mL): below 25% |
| CN1C(=O)CC[C@H]1c1cccnc1 [Cotinine, cotinine] | non-embryotoxic | 497 ± 139 µg/mL | 341 ± 72.9 µg/mL | 272 ± 82.8 µg/mL | Approx. plasma concentration [8]: 0.068 to 0.3 µg/mL |
| O=c1ccc2ccccc2o1 [Coumarin, coumarin] | strongly developmentally osteotoxic | 0.114 µg/mL | 0.013 µg/mL | 0.024 ± 0.009 µg/mL | – |
| CN1CCC(c2cccnc2)C1 (stereo not drawn) [Isonicotine, isonicotine] | neither chemical classified as developmentally osteotoxic | – | – | – | – |
| CN1CCC[C@H]1c1cccnc1 [Nicotine, nicotine] | non-embryotoxic | > 1000 µg/mL | > 1000 µg/mL | 633 ± 2350 µg/mL | Effect on H9 hESC differentiation potential / calcification, in words ([2]; all tested concentration ranges): a decrease in calcification was seen in the higher concentrations |
| CC1(C)S[C@@H]2[C@H](NC(=O)Cc3ccccc3)C(=O)N2[C@H]1C(=O)O [Penicillin G, penicillin G sodium salt, reference compound] | – | > 1000 µg/mL | > 1000 µg/mL | – | Embryotoxicity class ([1]; biostatistical model of Genschow et al. from ID50 hESC, IC50 hESC, IC50 hFF): I |
| c1ccc2ncccc2c1 [Quinoline, quinoline] | weakly developmentally osteotoxic | 59.4 ± 19.1 µg/mL | 2.65 ± 0.51 µg/mL | 2.27 ± 0.76 µg/mL | Calculated plasma concentration [6]: 0.000045 µg/mL; Median lethal dose [9]: 11 µg/mL |
| CCOC(N)=O [Urethane, urethane] | non-embryotoxic | > 1000 µg/mL | > 1000 µg/mL | > 1000 µg/mL | – |

From PMC10747453, “Perturbations in Osteogenic Cell Fate Following Exposure to Constituents Present in Tobacco: A Combinatorial Study” (Toxics, 2023)
